We go through four compounds from article PMC8683085, “Serine ADP-ribosylation marks nucleosomes for ALC1-dependent chromatin remodeling” (eLife, 2021).

Experiment [1] addresses T1, ALC1 macrodomain (Homo sapiens, UniProt Q86WJ1).
T1 construct: A fragment encoding amino acids 636–878, corresponding to the macrodomain; 6xHis-SUMO (N, cleaved yes); made in house; host or cells: E. coli Rosetta2 (DE3)
T1 sequence (Q86WJ1 636-878): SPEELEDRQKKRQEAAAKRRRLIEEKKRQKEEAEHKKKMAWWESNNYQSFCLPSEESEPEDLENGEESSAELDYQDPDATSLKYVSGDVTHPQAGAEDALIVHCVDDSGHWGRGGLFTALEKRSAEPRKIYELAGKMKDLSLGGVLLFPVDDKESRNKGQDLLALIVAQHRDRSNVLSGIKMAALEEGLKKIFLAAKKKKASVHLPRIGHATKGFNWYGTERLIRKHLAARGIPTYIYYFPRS
Description: Fluorescence polarization binding of fluorescein-labeled ADP-ribosylated histone peptides to the ALC1 macrodomain. How it is done: Each fluorescently-labeled H2B (unmodified, mono-, di-, tri-, and tetra-ADP-ribose at H2BS6) and H3 peptide (unmodified, mono-, di-, tri-, tetra-, or penta-ADP-ribose at H3S10) was diluted to 2 nM in a buffer containing 25 mM Tris, pH 7.5, 100 mM NaCl, 2 mM MgCl2, 0.001% Triton X100, and 1 mM DTT. Note, H3 elongates more efficiently than H2B and so the penta-ADP-ribosylated species could be isolated for this peptide. Peptide concentration was calculated via fluorescein extinction coefficient (A480 = 70,000). To analyze peptide:pan-ADP-ribose detection reagent (Af1521 macrodomain fused to rabbit Fc tag, MilliporeSigma) interaction, the pan-ADP-ribose detection reagent was titrated into each peptide to final concentrations ranging from 0 to 2000 nM (points represent 3 x dilutions starting from 2000 nM; a higher concentration of 4000 nM was also included for mono- and di-ADP-ribosylated peptides). To analyze peptide:ALC1-macrodomain interaction, the ALC1-macrodomain was titrated into each peptide to final concentrations ranging from 0 to 3000 nM (points represent 3 x dilutions starting from 3000 nM). Reactions were added to a black, flat-bottom 96-well plate (Corning Costar) and analyzed on a BioTek Cytation five imager equipped with a Green FP filter set (excitation: 485 nm, emission: 528 nm). […]
For orientation: Fluorescence polarisation rises when a labelled molecule tumbles more slowly, as on binding a larger partner.

For experiment [2], the target named is T2, Af1521 macrodomain (fused to rabbit Fc tag) (Archaeoglobus fulgidus, UniProt O28751).
T2 construct: Af1521 macrodomain fused to rabbit Fc tag, MilliporeSigma; purchased MilliporeSigma
T2 sequence (O28751 1-192): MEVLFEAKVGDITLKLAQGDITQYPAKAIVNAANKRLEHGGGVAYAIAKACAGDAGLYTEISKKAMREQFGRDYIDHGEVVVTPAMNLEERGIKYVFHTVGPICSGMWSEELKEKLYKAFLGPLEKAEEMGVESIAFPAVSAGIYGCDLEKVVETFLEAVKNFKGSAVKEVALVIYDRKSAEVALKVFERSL
Description: Fluorescence polarization binding of fluorescein-labeled ADP-ribosylated histone peptides to the Af1521 macrodomain (pan-ADP-ribose detection reagent). The note with it: fluorescein-labeled peptide 2 nM, reagent titrated 0-2000 nM (4000 nM for mono-/di-ADPr), 25 mM Tris pH 7.5, 100 mM NaCl, 2 mM MgCl2, 0.001% Triton X100, 1 mM DTT, one-site specific binding fit, n = 3, read-out: Kd,app.

In a further experiment the target is T3, ALC1 (Homo sapiens, UniProt Q86WJ1).
T3 sequence (Q86WJ1 1-897): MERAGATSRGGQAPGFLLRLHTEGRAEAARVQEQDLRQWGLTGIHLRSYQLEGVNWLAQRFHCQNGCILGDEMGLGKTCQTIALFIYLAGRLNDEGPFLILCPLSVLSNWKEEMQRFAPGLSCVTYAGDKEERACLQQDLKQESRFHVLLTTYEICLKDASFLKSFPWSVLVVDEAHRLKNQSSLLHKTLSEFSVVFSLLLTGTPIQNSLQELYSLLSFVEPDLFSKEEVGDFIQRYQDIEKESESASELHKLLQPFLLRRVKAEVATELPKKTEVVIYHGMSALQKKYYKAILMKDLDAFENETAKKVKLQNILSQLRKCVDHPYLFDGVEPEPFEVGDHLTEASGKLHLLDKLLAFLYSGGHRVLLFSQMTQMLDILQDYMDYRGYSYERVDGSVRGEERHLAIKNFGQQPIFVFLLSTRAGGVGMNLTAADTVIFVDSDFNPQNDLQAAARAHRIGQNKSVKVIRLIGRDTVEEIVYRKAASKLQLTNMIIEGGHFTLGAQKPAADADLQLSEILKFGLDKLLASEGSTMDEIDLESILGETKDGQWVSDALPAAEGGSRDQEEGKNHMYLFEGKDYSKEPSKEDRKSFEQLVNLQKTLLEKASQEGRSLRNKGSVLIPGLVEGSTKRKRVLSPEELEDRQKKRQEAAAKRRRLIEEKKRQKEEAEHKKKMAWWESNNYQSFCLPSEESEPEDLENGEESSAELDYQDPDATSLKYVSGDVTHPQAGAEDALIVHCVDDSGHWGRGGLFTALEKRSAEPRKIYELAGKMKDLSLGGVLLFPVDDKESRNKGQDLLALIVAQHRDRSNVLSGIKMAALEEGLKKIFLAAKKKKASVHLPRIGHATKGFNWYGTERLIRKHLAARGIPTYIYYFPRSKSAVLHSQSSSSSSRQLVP
Description: Restriction enzyme accessibility (REA) nucleosome remodeling assay, single substrate, recombinant ALC1. The note with it: for k, ALC1 remodeling rate constant on unmodified nucleosome in the presence of free ADP-ribosylated peptide: REA assay, 4 nM ALC1, unmodified nucleosome 20 nM, peptide 40 nM, 2 mM ATP, one-phase exponential decay fit, n = 3. The format is biochemical. How it is done: REA assays and analysis were performed as previously described ([Dann et al., 2017]) with several modifications. Nucleosome remodeling reactions (25 μL) were carried out in REA Buffer (12 mM HEPES, pH 7.9, 4 mM Tris, pH 7.5, 60 mM KCl, 10 mM MgCl2, 10% glycerol, and 0.02% NP-40) including 1 μL of PstI (NEB, at 100,000 U/mL), 2 mM ATP (Sigma-Aldrich), and final concentrations of 4 nM ALC1 or 10 nM CHD4 and 20 nM of the desired nucleosome substrate. The reaction was incubated for 5 min prior to addition of chromatin remodeler to ensure that any trace amount of free DNA from the nucleosome assembly was digested prior to initiating the reaction. This is required to ensure that free DNA digestion can be assigned as background activity and is not interpreted as enzyme-dependent nucleosome remodeling in data processing. To each reaction, 37.5 μL of Quench Buffer (20 mM Tris, pH 7.5, 70 mM EDTA, pH 8, 2% SDS, 10% glycerol) was added at time points of 0, 3, 6, 18, 36, and 60 min. Samples were then deproteinized with 30 U/mL proteinase K (NEB) for 1 h at 37 °C. DNA purification was performed using the Qiagen PCR purification kit following manufacturer’s protocols. Purple Gel Loading Dye (6 X, NEB) was added to a final concentration of 1 X to the quenched reaction and samples were loaded onto a 5% TBE gel and run for 60 min at 150 volts in 0.5 X TBE Buffer (BioRad). Gels were stained with ethidium bromide and imaged on a BioRad ChemiDoc. Gel densitometry measurements were performed using ImageJ. For each lane, the total densitometry signal was calculated by adding the densitometry values corresponding to the PstI-digested species (lower band) and undigested species (upper band). The fraction unremodeled value for each lane was then calculated using the following formula: fraction unremodeled= signalundigested/signalundigested+ signaldigested […]

Experiment [3] concerns the target T1, ALC1 macrodomain. The note with it: free ADP-ribose molecules; ref Singh et al., 2017; cited from earlier work. From the text:
We therefore chose to pursue ALC1 for our initial ADP-ribosylated histone peptide interaction studies. Nine fluorescently-labeled, ADP-ribosylated histone peptides (H2BS6ADPr1-4 and H3S10ADPr ...

Read-outs that look alike come from different tables or passages of the source.

Consider `CC(C)C[C@H](NC(=O)[C@H](CCC(N)=O)NC(=O)[C@H](CCCCN)NC(=O)[C@H](CCCNC(=N)N)NC(=O)[C@@H]1CCCN1C(=O)[C@H](C)NC(=O)[C@H](CCCCN)NC(=O)CNC(=O)CNC(=O)[C@@H](NC(=O)[C@H](CO[C@H]1O[C@H](COP(=O)(O)OP(=O)(O)OC[C@H]2O[C@@H](n3cnc4c(N)ncnc43)[C@H](O[C@H]3O[C@H](COP(=O)(O)OP(=O)(O)OC[C@H]4O[C@@H](n5cnc6c(N)ncnc65)[C@H](O[C@H]5O[C@H](COP(=O)(O)OP(=O)(O)OC[C@H]6O[C@@H](n7cnc8c(N)ncnc87)[C@H](O[C@H]7O[C@H](COP(=O)(O)OP(=O)(O)OC[C@H]8O[C@@H](n9cnc%10c(N)ncnc%109)[C@H](O[C@H]9O[C@H](COP(=O)(O)OP(=O)(O)OC[C@H]%10O[C@@H](n%11cnc%12c(N)ncnc%12%11)[C@H](O)[C@@H]%10O)[C@@H](O)[C@H]9O)[C@@H]8O)[C@@H](O)[C@H]7O)[C@@H]6O)[C@@H](O)[C@H]5O)[C@@H]4O)[C@@H](O)[C@H]3O)[C@@H]2O)[C@@H](O)[C@H]1O)NC(=O)[C@H](CCCCN)NC(=O)[C@H](CCCNC(=N)N)NC(=O)[C@H](C)NC(=O)[C@@H](NC(=O)[C@H](CCC(N)=O)NC(=O)[C@H](CCCCN)NC(=O)[C@@H](NC(=O)[C@H](CCCNC(=N)N)NC(=O)[C@H](C)NC(=O)c1ccc2c(c1)C(=O)OC21c2ccc(O)cc2Oc2cc(O)ccc21)[C@@H](C)O)[C@@H](C)O)[C@@H](C)O)C(N)=O` [H3S10ADPr5 peptide], for which the Kd at ALC1 macrodomain [1] turned out to be 27.9 nM; in experiment [2], 42.5 nM. In the case of “H2BS6ADPr4 peptide: H2B (1-16) peptide with tetra-ADP-ribose at S6; fluorescein-labeled in FP assays ({5(6)‑carboxyfluorescein}-PEPAKS(tetra‑ADP‑ribose)APAPKKGSKK-NH2)”, the “k, ALC1 remodeling rate constant on unmodified nucleosome in the presence of free ADP-ribosylated peptide” value with ALC1 is 1.886e-05 min⁻¹. As to “H3S10ADPr4 peptide: H3 (1–20) peptide with tetra-ADP-ribose at S10; fluorescein-labeled in FP assays”, in the experiment with ALC1 (ALC1, unmodified nucleosome 20 nM, peptide 10, 40 or 200 nM), the “stimulation of ALC1-dependent remodeling of unmodified nucleosomes by the freely diffusing peptide” value is “unable to appreciably stimulate”. The “k, ALC1 remodeling rate constant on unmodified nucleosome in the presence of free ADP-ribosylated peptide” value in the experiment with ALC1 was 8.323e-05 min⁻¹. For the compound tri-ADP-ribose, the Kd on ALC1 macrodomain [3] is ~10 nM.
